Data taken from PubChem BioAssay AID220 (DTP/NCI, 2004).
Values joined by “and” are separate entries in the source; they are usually repeats but may differ in a detail not shown here. Equal entries are not always repeated. Inconclusive results are not listed.

Tested on: CD8F1 mice, subcutaneous mammary adenocarcinoma, T/C%
Assay: NCI In Vivo Anticancer Drug Screen. Data for tumor model Mammary Adenocarcinoma CD8F1 (subcutaneous) in CD8F1
Details: higher = larger tumour
Description: The antitumor activity of compounds was measured in mice bearing transplantable tumors. Survival or tumor size were measured and the results are expressed as the measurement made in the treated group (T) divided by the measurement made in the vehicle treated control group (C). The tumor model used in this assay is Mammary Adenocarcinoma CD8F1 (subcutaneous) in CD8F1

[1] = endpoint: median tumor weight (est.), dose: 12.5 mg/kg/injection, schedule: Q07DX005 (ip), vehicle: Klucel (hydroxypropylcellulose) (HPC)
[2] = endpoint: median tumor weight (est.), dose: 200.0 mg/kg/injection, schedule: Q07DX005 (ip), vehicle: Klucel (hydroxypropylcellulose) (HPC)
[3] = endpoint: median tumor weight (est.), dose: 400.0 mg/kg/injection, schedule: Q07DX005 (ip), vehicle: Klucel (hydroxypropylcellulose) (HPC)
[4] = endpoint: median tumor weight change, dose: 62.5 mg/kg/injection, schedule: Q01DX001 (ip), vehicle: saline with Tween-80
[5] = endpoint: median tumor weight change, dose: 125.0 mg/kg/injection, schedule: Q01DX001 (ip), vehicle: saline with Tween-80
[6] = endpoint: median tumor weight change, dose: 250.0 mg/kg/injection, schedule: Q01DX001 (ip), vehicle: saline with Tween-80

C=C(NC(=O)C(=C)NC(=O)c1csc(C2=NC3c4csc(n4)C4NC(=O)c5csc(n5)C(C(C)(O)C(C)O)NC(=O)C5CSC(=N5)/C(=C/C)NC(=O)C(C(C)O)NC(=O)c5csc(n5)C3(CC2)NC(=O)C(C)NC(=O)C(=C)NC(=O)C(C)NC(=O)C(C(C)CC)NC2C=Cc3c(C(C)O)cc(nc3C2O)C(=O)OC4C)n1)C(N)=O (configuration not stated)
T/C (endpoint: median tumor weight (est.), dose: 6.25 mg/kg/injection, schedule: Q07DX005 (ip), vehicle: Klucel (hydroxypropylcellulose) (HPC)): 72 % of control
T/C [1]: 64 % of control and 70 % of control
T/C [2]: 83 % of control and 103 % of control
T/C [3]: 90 % of control

CC12CC(C(=O)O)C3(O)CC(C)(C1)CC(C)(C2)C3 (configuration not stated) (tested in a mixture with another compound)
T/C [1]: 93 % of control
T/C (endpoint: median tumor weight (est.), dose: 25.0 mg/kg/injection, schedule: Q07DX005 (ip), vehicle: Klucel (hydroxypropylcellulose) (HPC)): 78 % of control
T/C (endpoint: median tumor weight (est.), dose: 50.0 mg/kg/injection, schedule: Q07DX005 (ip), vehicle: Klucel (hydroxypropylcellulose) (HPC)): 56 % of control
T/C [2]: 87 % of control
T/C [3]: 71 % of control

COc1cc(C)c(C2NC(=O)c3ccccc3N2)cc1C (configuration not stated)
T/C (endpoint: median tumor weight change, dose: 125.0 mg/kg/injection, schedule: Q01DX001 (ip), vehicle: Klucel (hydroxypropylcellulose) (HPC)): 69 % of control
T/C (endpoint: median tumor weight change, dose: 250.0 mg/kg/injection, schedule: Q01DX001 (ip), vehicle: Klucel (hydroxypropylcellulose) (HPC)): 76 % of control
T/C (endpoint: median tumor weight change, dose: 500.0 mg/kg/injection, schedule: Q01DX001 (ip), vehicle: Klucel (hydroxypropylcellulose) (HPC)): 91 % of control
T/C (endpoint: median tumor weight change, dose: 1000.0 mg/kg/injection, schedule: Q01DX001 (ip), vehicle: Klucel (hydroxypropylcellulose) (HPC)): 107 % of control
T/C (endpoint: median tumor weight change, dose: 2000.0 mg/kg/injection, schedule: Q01DX001 (ip), vehicle: Klucel (hydroxypropylcellulose) (HPC)): 84 % of control

CC1CCC(NC(=O)N(CCCl)N=O)CC1 (configuration not stated)
T/C (endpoint: mean tumor weight, dose: 6.25 mg/kg/injection, schedule: Q01DX009 (ip), vehicle: saline + alcohol): 108 % of control
T/C (endpoint: mean tumor weight, dose: 6.25 mg/kg/injection, schedule: Q01DX009 (ip), vehicle: saline): 214 % of control
T/C (endpoint: mean tumor weight, dose: 12.5 mg/kg/injection, schedule: Q01DX009 (ip), vehicle: saline + alcohol): 27 % of control
T/C (endpoint: mean tumor weight, dose: 12.5 mg/kg/injection, schedule: Q01DX009 (ip), vehicle: saline): 50 % of control
T/C (endpoint: mean tumor weight, dose: 12.5 mg/kg/injection, schedule: Q07DX006 (ip), vehicle: saline + alcohol): 63 % of control
T/C (endpoint: mean tumor weight, dose: 12.5 mg/kg/injection, schedule: Q07DX006 (ip), vehicle: saline): 24 % of control
T/C (endpoint: mean tumor weight, dose: 12.5 mg/kg/injection, schedule: Q07DX007 (ip), vehicle: saline + alcohol): 124 % of control
T/C (endpoint: mean tumor weight, dose: 25.0 mg/kg/injection, schedule: Q01DX009 (ip), vehicle: saline): 47 % of control
T/C (endpoint: mean tumor weight, dose: 25.0 mg/kg/injection, schedule: Q07DX006 (ip), vehicle: saline + alcohol): 28 % of control
T/C (endpoint: mean tumor weight, dose: 25.0 mg/kg/injection, schedule: Q07DX006 (ip), vehicle: saline): 48 % of control
T/C (endpoint: mean tumor weight, dose: 25.0 mg/kg/injection, schedule: Q07DX007 (ip), vehicle: saline + alcohol): 100 % of control
T/C (endpoint: mean tumor weight, dose: 50.0 mg/kg/injection, schedule: Q07DX006 (ip), vehicle: saline + alcohol): 4 % of control
T/C (endpoint: mean tumor weight, dose: 50.0 mg/kg/injection, schedule: Q07DX006 (ip), vehicle: saline): 7 % of control
T/C (endpoint: mean tumor weight, dose: 50.0 mg/kg/injection, schedule: Q07DX007 (ip), vehicle: saline + alcohol): 66 % of control
T/C (endpoint: median tumor weight (est.), dose: 2.0 mg/kg/injection, schedule: Q07DX005 (ip), vehicle: Klucel (hydroxypropylcellulose) (HPC)): 98 % of control
T/C (endpoint: median tumor weight (est.), dose: 4.0 mg/kg/injection, schedule: Q07DX005 (ip), vehicle: Klucel (hydroxypropylcellulose) (HPC)): 50 % of control
T/C (endpoint: median tumor weight (est.), dose: 8.0 mg/kg/injection, schedule: Q07DX005 (ip), vehicle: Klucel (hydroxypropylcellulose) (HPC)): 38 % of control
T/C (endpoint: median tumor weight (est.), dose: 16.0 mg/kg/injection, schedule: Q07DX005 (ip), vehicle: Klucel (hydroxypropylcellulose) (HPC)): 24 % of control
T/C (endpoint: median tumor weight change, dose: 8.0 mg/kg/injection, schedule: Q01DX001 (ip), vehicle: Klucel (hydroxypropylcellulose) (HPC)): 98 % of control
T/C (endpoint: median tumor weight change, dose: 13.8 mg/kg/injection, schedule: Q01DX001 (ip), vehicle: Klucel (hydroxypropylcellulose) (HPC)): 68 % of control
T/C (endpoint: median tumor weight change, dose: 16.0 mg/kg/injection, schedule: Q01DX001 (ip), vehicle: Klucel (hydroxypropylcellulose) (HPC)): 78 % of control
T/C (endpoint: median tumor weight change, dose: 23.0 mg/kg/injection, schedule: Q01DX001 (ip), vehicle: Klucel (hydroxypropylcellulose) (HPC)): 23 % of control
T/C (endpoint: median tumor weight change, dose: 32.0 mg/kg/injection, schedule: Q01DX001 (ip), vehicle: Klucel (hydroxypropylcellulose) (HPC)): 42 % of control
T/C (endpoint: median tumor weight change, dose: 38.4 mg/kg/injection, schedule: Q01DX001 (ip), vehicle: Klucel (hydroxypropylcellulose) (HPC)): -12 % of control
T/C (endpoint: median tumor weight change, dose: 64.0 mg/kg/injection, schedule: Q01DX001 (ip), vehicle: Klucel (hydroxypropylcellulose) (HPC)): -13 % of control and -32 % of control

O=S(=O)(CCl)OCCCl
T/C [4]: 56 % of control
T/C [5]: 60 % of control
T/C [6]: 69 % of control

COc1ccc(C[C@H](N)C(=O)NC2C(CO)OC(n3cnc4c(N(C)C)ncnc43)C2O)cc1 (some centres not stated)
T/C (endpoint: median tumor weight (est.), dose: 48.0 mg/kg/injection, schedule: Q07DX005 (ip), vehicle: saline): 90 % of control
T/C (endpoint: median tumor weight (est.), dose: 96.0 mg/kg/injection, schedule: Q07DX005 (ip), vehicle: saline): 63 % of control
T/C (endpoint: median tumor weight (est.), dose: 192.0 mg/kg/injection, schedule: Q07DX005 (ip), vehicle: saline): 62 % of control
T/C (endpoint: median tumor weight (est.), dose: 384.0 mg/kg/injection, schedule: Q07DX005 (ip), vehicle: saline): 16 % of control

CCC/C=C/C=C/C(=O)OC1/C(=C/C(=O)OC)CC2CC(C(C)O)OC(=O)CC(O)CC3CC(OC(C)=O)C(C)(C)C(O)(CC4C/C(=C/C(=O)OC)CC(/C=C/C(C)(C)C1(O)O2)O4)O3 (configuration not stated)
T/C (endpoint: median tumor weight change, dose: 0.02 mg/kg/injection, schedule: Q01DX001 (ip), vehicle: saline + alcohol): 63 % of control
T/C (endpoint: median tumor weight change, dose: 0.04 mg/kg/injection, schedule: Q01DX001 (ip), vehicle: saline + alcohol): 115 % of control
T/C (endpoint: median tumor weight change, dose: 0.09 mg/kg/injection, schedule: Q01DX001 (ip), vehicle: saline + alcohol): 95 % of control
T/C (endpoint: median tumor weight change, dose: 0.19 mg/kg/injection, schedule: Q01DX001 (ip), vehicle: saline + alcohol): 22 % of control

COC(=O)Nc1nc2ccc(C3(c4ccc(F)cc4)OCCO3)cc2[nH]1
T/C (endpoint: median tumor weight change, dose: 125.0 mg/kg/injection, schedule: Q01DX001 (ip), vehicle: saline): 99 % of control
T/C (endpoint: median tumor weight change, dose: 125.0 mg/kg/injection, schedule: Q01DX001 (ip), vehicle: suspension in saline): 152 % of control
T/C (endpoint: median tumor weight change, dose: 250.0 mg/kg/injection, schedule: Q01DX001 (ip), vehicle: suspension in saline): 67 % of control
T/C (endpoint: median tumor weight change, dose: 500.0 mg/kg/injection, schedule: Q01DX001 (ip), vehicle: suspension in saline): 153 % of control
T/C (endpoint: median tumor weight change, dose: 1000.0 mg/kg/injection, schedule: Q01DX001 (ip), vehicle: suspension in saline): 93 % of control

CCC(C)C(=O)OC1C(=O)OC2CC3C(C)=CC(=O)C(O)C3(C)C3C4(O)OCC23C1C(C)C4O (configuration not stated)
T/C (endpoint: median tumor weight (est.), dose: 0.5 mg/kg/injection, schedule: Q07DX005 (ip), vehicle: saline): 70 % of control
T/C (endpoint: median tumor weight (est.), dose: 1.0 mg/kg/injection, schedule: Q07DX005 (ip), vehicle: saline with Tween-80): 237 % of control
T/C (endpoint: median tumor weight (est.), dose: 1.0 mg/kg/injection, schedule: Q07DX005 (ip), vehicle: saline): 95 % of control
T/C (endpoint: median tumor weight (est.), dose: 2.0 mg/kg/injection, schedule: Q07DX005 (ip), vehicle: saline): 70 % of control
T/C (endpoint: median tumor weight (est.), dose: 4.0 mg/kg/injection, schedule: Q07DX005 (ip), vehicle: saline with Tween-80): 165 % of control
T/C (endpoint: median tumor weight (est.), dose: 4.0 mg/kg/injection, schedule: Q07DX005 (ip), vehicle: saline): 74 % of control

O=C1CN(Cc2ccc3c(c2)OCO3)NO1
T/C [4]: 80 % of control and 84 % of control
T/C [5]: 113 % of control and 115 % of control
T/C [6]: 80 % of control and 83 % of control
T/C (endpoint: median tumor weight change, dose: 1000.0 mg/kg/injection, schedule: Q01DX001 (ip), vehicle: saline with Tween-80): 88 % of control

CC(=S)NC(O)C(=O)c1ccccc1 (configuration not stated)
T/C (endpoint: median tumor weight (est.), dose: 25.0 mg/kg/injection, schedule: Q07DX005 (ip), vehicle: saline with Tween-80): 79 % of control
T/C (endpoint: median tumor weight (est.), dose: 100.0 mg/kg/injection, schedule: Q07DX005 (ip), vehicle: saline with Tween-80): 96 % of control
T/C (endpoint: median tumor weight (est.), dose: 200.0 mg/kg/injection, schedule: Q07DX005 (ip), vehicle: saline with Tween-80): 111 % of control

CCCCC1CCCCCCc2[nH]c(/C=C3\N=C(c4ccc[nH]4)C=C3OC)cc21 (configuration not stated)
T/C (endpoint: median tumor weight change, dose: 0.38 mg/kg/injection, schedule: Q01DX001 (ip), vehicle: saline with Tween-80): 92 % of control
T/C (endpoint: median tumor weight change, dose: 0.75 mg/kg/injection, schedule: Q01DX001 (ip), vehicle: saline with Tween-80): 78 % of control
T/C (endpoint: median tumor weight change, dose: 1.5 mg/kg/injection, schedule: Q01DX001 (ip), vehicle: saline with Tween-80): 104 % of control
T/C (endpoint: median tumor weight change, dose: 3.0 mg/kg/injection, schedule: Q01DX001 (ip), vehicle: saline with Tween-80): 102 % of control
